Reference: patent publication US11135457B2, “Skincare compositions” (Reckitt Benckiser Healthcare International Limited, priority 2009, dated 2021)

Assays:
Format in all cases: cell-based
[1] = tested on: EpiDerm skin model; experiment: MTT viability, EpiDerm skin model
[2] = tested on: IL-8; experiment: In vitro EpiDerm skin model, PMA irritant: IL-8 release; conditions: no PMA irritant (first IL-8 column, c6)
Experimental: (§1) The purpose of the in vitro testing was to evaluate the potential anti-inflammatory action of compositions according to the present invention.
(§2) In vitro tests were carried out as follows: • take an irritant treated EpiDerm™ skin model. Initial inflammation was measured by the cytokine release after exposure to a single dose of irritant. • apply test compositions to the irritant treated EpiDerm skin • anti-inflammatory potential was then measured by reduction in cytokine release • specifically, the levels of cytokines TNF-α, IL-6 and IL-8 were measured to give a picture of the performance of the product across the lifecycle of an acne event or related skin inflammation.
(§3) Experimental design follows standard procedures, using phorbol-12-myristate 13-acetate (PMA) as irritant. Test samples were applied by pipette as solutions to the Epiderm tissue, and each sample was tested in triplicate against positive and negative controls. Anti-inflammatory activity measured by relative decrease in cytokine release in irritant-treated tissue compared to non-irritant treated tissue.
(§4) The separate active components of an example according to the invention were tested, along with some combinations in pairs and one combination lacking the salicylic acid. Where these actives were applied, they were in the same w/w ratio as in the example composition, example 9.

[3] = tested on: TNF-α; experiment: In vitro EpiDerm skin model, PMA irritant: TNF-α release; conditions: for TNFα + PMA / TNFα no PMA: EpiDerm skin model; for TNFα + PMA: + PMA irritant; for TNFα no PMA: no PMA irritant
Experimental: as §1, §2, §3, §4

[4] = tested on: IL-6; experiment: In vitro EpiDerm skin model, PMA irritant: IL-6 release; conditions: for IL-6 + PMA: + PMA irritant; for IL-6 no PMA: no PMA irritant
Experimental: as §1, §2, §3, §4

Structure (SMILES) | MTT < 95% [1] [%] | IL-8 no PMA [2] [pg/mL] | TNFα + PMA [3] [pg/mL] | TNFα no PMA [3] [pg/mL] | IL-6 + PMA [4] [pg/mL] | IL-6 no PMA [4] [pg/mL] | anti-inflammatory action (reduction in cytokine release) ([3]; irritant (PMA) treated EpiDerm skin model, cytokines TNF-α, IL-6 and IL-8 taken together)
CC1(C)[C@@H](O[C@H]2O[C@H](C(=O)[O-])[C@@H](O)[C@H](O)[C@H]2O[C@@H]2O[C@H](C(=O)[O-])[C@@H](O)[C@H](O)[C@H]2O)CC[C@]2(C)[C@H]3C(=O)C=C4[C@@H]5C[C@@](C)(C(=O)O)CC[C@]5(C)CC[C@@]4(C)[C@]3(C)CC[C@@H]12.[K+].[K+] [Dipotassium glycyrrhizinate (GLYR)] | 93.7 | 44.413 | 78.48 | -0.636 | 7.591 | -1.781 | –
NC(=O)c1cccnc1 [Nicotinamide (NA)] | 96.8 | 47.54 | 40.202 | -0.171 | -2.712 | -4.294 | –
C[C@]12CCC(=O)C=C1CC[C@@H]1[C@@H]2[C@@H](O)C[C@@]2(C)[C@H]1CC[C@]2(O)C(=O)CO [Positive control (hydrocortisone)] | – | – | -0.378 | – | -4.358 | – | –
O=C(O)c1ccccc1O [Salicylic acid (SCA)] | 103.2 | 72.757 | 12.265 | -0.068 | 6.159 | -1.445 | –
CC(O)C(=O)[O-].[Na+] (stereo not drawn) [Sodium Lactate (SLA)] | 99.1 | 104.549 | 92.434 | 0.882 | 22.6 | 4.909 | –
O=C(O)c1ccccc1O [salicylic acid, reference compound] | – | – | – | – | – | – | acts inter alia as an anti-inflammatory
